The target in assay [1] is T1, EtfAB (electron transfer flavoprotein) (Acidaminococcus fermentans, UniProt D2RIQ2).
T1 construct: gene Acfer_0555; recombinant from E. coli, pET-11a, no tag told; heterodimer with alpha-FAD (EtfA) and beta-FAD (EtfB); with Electron transfer flavoprotein subunit alpha
T1 sequence (D2RIQ2 1-263): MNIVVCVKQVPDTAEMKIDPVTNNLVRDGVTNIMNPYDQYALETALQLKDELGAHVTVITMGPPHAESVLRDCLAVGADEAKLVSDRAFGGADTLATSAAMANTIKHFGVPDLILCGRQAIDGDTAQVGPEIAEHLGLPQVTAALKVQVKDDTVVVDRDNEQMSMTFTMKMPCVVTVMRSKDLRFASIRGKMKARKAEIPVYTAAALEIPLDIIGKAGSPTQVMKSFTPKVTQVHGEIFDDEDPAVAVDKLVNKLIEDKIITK
T1 sequence (D2RIQ3 1-340 partner): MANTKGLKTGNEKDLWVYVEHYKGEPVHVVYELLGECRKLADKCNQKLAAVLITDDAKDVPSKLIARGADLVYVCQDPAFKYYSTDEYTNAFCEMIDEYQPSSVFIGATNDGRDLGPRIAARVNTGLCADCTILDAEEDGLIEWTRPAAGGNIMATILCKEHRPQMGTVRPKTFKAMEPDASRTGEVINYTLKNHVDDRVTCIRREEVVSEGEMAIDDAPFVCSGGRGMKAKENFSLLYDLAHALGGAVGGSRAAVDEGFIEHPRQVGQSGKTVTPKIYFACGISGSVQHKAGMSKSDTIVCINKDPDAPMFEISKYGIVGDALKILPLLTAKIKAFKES
The assay is described as follows: anaerobic stopped-flow, beta-FAD reduction and charge-transfer complex at […] nm. The format is biochemical. As to conditions: 40 μM EtfAB + 40 μM NADH, 50 mM potassium phosphate pH 7.0, 4 °C; beta-FAD site.

The target in assay [2] is T2, Bcd (butyryl-CoA dehydrogenase) (Acidaminococcus fermentans, UniProt D2RL84).
T2 construct: gene Acfer_1477; recombinant from E. coli, pET-11a, no tag told; homotetramer with one delta-FAD per subunit
T2 sequence (D2RL84 1-383): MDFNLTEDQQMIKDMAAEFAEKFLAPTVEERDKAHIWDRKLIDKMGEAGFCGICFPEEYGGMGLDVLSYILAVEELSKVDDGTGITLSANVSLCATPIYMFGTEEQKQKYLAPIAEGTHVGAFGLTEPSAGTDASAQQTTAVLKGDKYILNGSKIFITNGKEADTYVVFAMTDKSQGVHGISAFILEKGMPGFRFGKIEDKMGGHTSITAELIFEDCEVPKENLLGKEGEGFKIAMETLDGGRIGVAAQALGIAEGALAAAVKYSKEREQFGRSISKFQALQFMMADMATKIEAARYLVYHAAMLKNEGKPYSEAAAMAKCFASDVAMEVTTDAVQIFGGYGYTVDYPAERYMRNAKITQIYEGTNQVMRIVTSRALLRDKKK
The experiment in a line: static titration, double-beam UV-visible difference absorbance at […] nm. In kind it is binding.

Structures are written as SMILES.

With `NC(=O)C1=CN([C@@H]2O[C@H](COP(=O)(O)OP(=O)(O)OC[C@H]3O[C@@H](n4cnc5c(N)ncnc54)[C@H](O)[C@@H]3O)[C@@H](O)[C@H]2O)C=CC1` [NADH], in assay [1], the “anaerobic stopped-flow, beta-FAD reduction and charge-transfer complex at 650 nm” value is recorded as “mixing EtfAB with a stoichiometric amount NADH resulted in a rapid reduction of β-FAD”.
A word on the Kd: it is the equilibrium constant for the complex coming apart. A low value points to a tighter complex. In assay [2], `C/C=C/C(=O)SCCNC(=O)CCNC(=O)[C@H](O)C(C)(C)COP(=O)(O)OP(=O)(O)OC[C@H]1O[C@@H](n2cnc3c(N)ncnc32)[C@H](O)[C@@H]1OP(=O)(O)O` [crotonyl-CoA] showed a Kd of 95 ± 6 µM.

The record behind these values is article PMC12552937, “Kinetic mechanisms of electron bifurcation with electron transfer flavoprotein, NADH, butyryl-CoA dehydrogenase, and ferredoxin reveal a semiquinone cycle” (The Journal of Biological Chemistry, 2025).
